Surviving fraction data for two test systems are collected here from the supplement of paper PMC6045584.

± gives the standard deviation of the averaged measurements.

Compound in one experiment: C[C@@H](Oc1cc(-c2cnn(C3CCNCC3)c2)cnc1N)c1c(Cl)ccc(F)c1Cl [CRIZOTINIB]
Description: surviving fraction relative to DMSO-only wells; higher = less growth inhibition. The following applies: exposure time: 5 days. The gist of the method: (§1)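 Log-phase tumour cells were seeded at 250–500 per well in 384-well plates and, from 24 hours after seeding, exposed continuously for five days to inhibitors at 0.5, 1, 5, 10, 50, 100, 500 and 1000 nM. Surviving fraction is CellTiter-Glo luminescence normalised to the median of DMSO-only wells. Luminescence was measured after 10 minutes at room temperature, and only lines screened three times with replicate Pearson r >0.7 and median Z' >0.3 were kept.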

Compound in a further experiment: CN1CCN(c2nc(C3=C(c4c[nH]c5ccccc45)C(=O)NC3=O)c3ccccc3n2)CC1 [SOTRASTAURIN/AEB071]
The description is as above. Particulars: exposure time: 5 days. The gist of the method: as §1

As to HCC78 LUNG, the surviving fraction with CRIZOTINIB (0.5 nM) stood at 0.99 ± 0.11; with CRIZOTINIB (1 nM), 1 ± 0.074; with CRIZOTINIB (50 nM) it was 0.521 ± 0.021; with CRIZOTINIB (100 nM) it was 0.522 ± 0.082; in the experiment with CRIZOTINIB (500 nM), 0.216 ± 0.062; with CRIZOTINIB (1000 nM), 0.072 ± 0.029. In addition, the surviving fraction was determined as 1.08 ± 0.35 in the experiment with SOTRASTAURIN/AEB071 (0.5 nM); 0.934 ± 0.14 in the experiment with SOTRASTAURIN/AEB071 (1 nM); 0.96 ± 0.073 with SOTRASTAURIN/AEB071 (5 nM); 1 ± 0.12 in the experiment with SOTRASTAURIN/AEB071 (10 nM); 1.16 ± 0.18 in the experiment with SOTRASTAURIN/AEB071 (50 nM); 1.48 ± 0.17 with SOTRASTAURIN/AEB071 (100 nM). Moreover, the surviving fraction in the experiment with SOTRASTAURIN/AEB071 (500 nM) came out at 1.11 ± 0.059; with SOTRASTAURIN/AEB071 (1000 nM), 1.05 ± 0.058.

Regarding HT1080 SOFT TISSUE, the surviving fraction is 1.07 ± 0.038 in the experiment with CRIZOTINIB (0.5 nM); 1.07 ± 0.028 in the experiment with CRIZOTINIB (1 nM); 1.07 ± 0.016 with CRIZOTINIB (5 nM); 1.06 ± 0.017 in the experiment with CRIZOTINIB (10 nM); 1.04 ± 0.062 with CRIZOTINIB (50 nM); 1.07 ± 0.052 in the experiment with CRIZOTINIB (100 nM). In addition, the surviving fraction is 1.02 ± 0.042 in the experiment with CRIZOTINIB (500 nM); 0.798 ± 0.064 with CRIZOTINIB (1000 nM); 1.07 ± 0.028 in the experiment with SOTRASTAURIN/AEB071 (0.5 nM); 1.08 ± 0.024 with SOTRASTAURIN/AEB071 (1 nM); 1.053 ± 0.0085 with SOTRASTAURIN/AEB071 (5 nM); 1.05 ± 0.021 in the experiment with SOTRASTAURIN/AEB071 (10 nM). For the same test system, the surviving fraction is 1.03 ± 0.025 with SOTRASTAURIN/AEB071 (50 nM), 1.04 ± 0.016 with SOTRASTAURIN/AEB071 (100 nM), 1.07 ± 0.019 in the experiment with SOTRASTAURIN/AEB071 (500 nM) and 1.16 ± 0.063 with SOTRASTAURIN/AEB071 (1000 nM).
